# Assay results from patent US20260138958A1, “SUBSTITUTED N-PHENYLURACILS AND SALTS THEREOF, AND USE THEREOF AS HERBICIDAL ACTIVE SUBSTANCES” (Bayer Aktiengesellschaft, priority 2022, published 2026).
# Experiments:
# Assay type in all cases: in vivo
# [1] = system: Abutilon theophrasti (ABUTH); assay: Post-emergence herbicidal action, greenhouse pot test
# Method: (§1) Seeds of monocotyledonous and dicotyledonous weeds and crop plants were placed in sandy loam in plastic or wood-fibre pots, covered with soil and cultivated in a greenhouse under controlled growth conditions. 2 to 3 weeks after sowing, the test plants were treated at the one-leaf stage. The compounds of the invention, formulated in the form of wettable powders (WP) or as emulsion concentrates (EC), were then sprayed onto the green parts of the plants as aqueous suspension or emulsion with addition of 0.5% additive at a water application rate of 600 l/ha (converted). After the test plants had been kept in the greenhouse under optimum growth conditions for about 3 weeks, the activity of the preparations was rated visually in comparison to untreated controls. For example, 100% activity=the plants have died, 0% activity=like control plants.
# [2] = system: Alopecurus myosuroides (ALOMY); assay: as above
# Method: as §1
# [3] = system: Amaranthus retroflexus (AMARE); assay: as above
# Method: as §1
# Bassia scoparia (KCHSC) = assay: as above
# Method: as §1
# [4] = system: Digitaria sanguinalis (DIGSA); assay: as above
# Method: as §1
# [5] = system: Echinochloa crus-galli (ECHCG); assay: as above
# Method: as §1
# Lolium rigidum (LOLRI) = assay: as above
# Method: as §1
# [6] = system: Pharbitis purpurea (PHBPU); assay: as above
# Method: as §1
# [7] = system: Polygonum convolvulus (POLCO); assay: as above
# Method: as §1
# Setaria viridis (SETVI) = assay: as above
# Method: as §1
# [8] = system: Tripleurospermum inodorum (MATIN); assay: as above
# Method: as §1
# Veronica persica (VERPE) = assay: as above
# Method: as §1
# Viola tricolor (VIOTR) = assay: as above
# Method: as §1
# [9] = system: Triticum aestivum (TRZAS); assay: Post-emergence crop plant compatibility, greenhouse pot test
# Method: as §1
# The observed effects on selected crop plants are reported here in comparison to the untreated controls (values in %).
smiles,measurement,setting,value
Cn1c(C(F)(F)F)cc(=O)n(-c2cc(Oc3ccccc3OCC(=O)OC(C#N)C3CC3)c(Cl)cc2F)c1=O (stereo not shown) [I.7-4],Post-emergence effect at 1.25 g/ha against ABUTH in %,[1],100%
same,Post-emergence effect at 5 g/ha against ABUTH in %,[1]; 5 g/ha,100%
same,Post-emergence effect at 20 g/ha against ABUTH in %,[1]; 20 g/ha,100%
same,Post-emergence effect at 5 g/ha against ALOMY in %,[2]; 5 g/ha,80%
same,Post-emergence effect at 20 g/ha against ALOMY in %,[2]; 20 g/ha,100%
same,Post-emergence effect at 1.25 g/ha against AMARE in %,[3]; 1.25 g/ha,100%
same,Post-emergence effect at 5 g/ha against AMARE in %,[3]; 5 g/ha,100%
same,Post-emergence effect at 20 g/ha against AMARE in %,[3]; 20 g/ha,100%
same,Post-emergence effect at 1.25 g/ha against KCHSC in %,Bassia scoparia (KCHSC),100%
same,Post-emergence effect at 5 g/ha against KCHSC in %,Bassia scoparia (KCHSC),100%
same,Post-emergence effect at 20 g/ha against KCHSC in %,Bassia scoparia (KCHSC),100%
same,Post-emergence effect at 5 g/ha against DIGSA in %,[4],100%
same,Post-emergence effect at 20 g/ha against DIGSA in %,[4],100%
same,Post-emergence effect at 5 g/ha against ECHCG in %,[5],100%
same,Post-emergence effect at 20 g/ha against ECHCG in %,[5]; 20 g/ha,100%
same,Post-emergence effect at 20 g/ha against LOLRI in %,Lolium rigidum (LOLRI),100%
same,Post-emergence effect at 1.25 g/ha against PHBPU in %,[6]; 1.25 g/ha,80%
same,Post-emergence effect at 5 g/ha against PHBPU in %,[6]; 5 g/ha,100%
same,Post-emergence effect at 20 g/ha against PHBPU in %,[6]; 20 g/ha,100%
same,Post-emergence effect at 5 g/ha against POLCO in %,[7]; 5 g/ha,100%
same,Post-emergence effect at 20 g/ha against POLCO in %,[7]; 20 g/ha,100%
same,Post-emergence effect at 1.25 g/ha against SETVI in %,Setaria viridis (SETVI),100%
same,Post-emergence effect at 5 g/ha against SETVI in %,Setaria viridis (SETVI); 5 g/ha,100%
same,Post-emergence effect at 20 g/ha against SETVI in %,Setaria viridis (SETVI); 20 g/ha,100%
same,Post-emergence effect at 5 g/ha against MATIN in %,[8]; 5 g/ha,100%
same,Post-emergence effect at 20 g/ha against MATIN in %,[8]; 20 g/ha,100%
same,Post-emergence effect at 1.25 g/ha against VERPE in %,Veronica persica (VERPE),100%
same,Post-emergence effect at 5 g/ha against VERPE in %,Veronica persica (VERPE); 5 g/ha,100%
same,Post-emergence effect at 20 g/ha against VERPE in %,Veronica persica (VERPE); 20 g/ha,100%
same,Post-emergence effect at 1.25 g/ha against VIOTR in %,Viola tricolor (VIOTR),100%
same,Post-emergence effect at 5 g/ha against VIOTR in %,Viola tricolor (VIOTR),100%
same,Post-emergence effect at 20 g/ha against VIOTR in %,Viola tricolor (VIOTR); 20 g/ha,100%
same,Post-emergence effect at 1.25 g/ha against TRZAS in %,"[9]; crop plant, post-emergence, 1.25 g/ha",20%
"CC(OC(=O)COc1ccccc1Oc1cc(-n2c(=O)cc(C(F)(F)F)n(C)c2=O)c(F)cc1Cl)C1CC1 (stereo not shown) [I.7-2, 1-Cyclopropylethyl (2-{2-chloro-4-fluoro-5-[3-methyl-2,6-dioxo-4-(trifluoromethyl)-3,6-dihydropyrimidin-1(2H)-yl]phenoxy}phenoxy)acetate]",Post-emergence effect at 1.25 g/ha against ABUTH in %,[1],80%
same,pest or weed control at 5 g/ha,"[1]; Abutilon theophrasti, 504 h, 5 g/ha, read-out: Post-emergence effect at 5 g/ha against ABUTH in %",100%
same,pest or weed control at 20 g/ha,"[1]; Abutilon theophrasti, 504 h, 20 g/ha, read-out: Post-emergence effect at 20 g/ha against ABUTH in %",100%
same,pest or weed control at 20 g/ha,"[2]; Alopecurus myosuroides, 504 h, 20 g/ha, read-out: Post-emergence effect at 20 g/ha against ALOMY in %",80%
same,pest or weed control at 1.25 g/ha,"[3]; Amaranthus retroflexus, 504 h, 1.25 g/ha, read-out: Post-emergence effect at 1.25 g/ha against AMARE in %",100%
same,pest or weed control at 5 g/ha,"[3]; Amaranthus retroflexus, 504 h, 5 g/ha, read-out: Post-emergence effect at 5 g/ha against AMARE in %",100%
same,pest or weed control at 20 g/ha,"[3]; Amaranthus retroflexus, 504 h, 20 g/ha, read-out: Post-emergence effect at 20 g/ha against AMARE in %",100%
same,Post-emergence effect at 1.25 g/ha against KCHSC in %,Bassia scoparia (KCHSC),100%
same,Post-emergence effect at 5 g/ha against KCHSC in %,Bassia scoparia (KCHSC),100%
same,Post-emergence effect at 20 g/ha against KCHSC in %,Bassia scoparia (KCHSC),100%
same,Post-emergence effect at 1.25 g/ha against DIGSA in %,[4]; 1.25 g/ha,100%
same,Post-emergence effect at 5 g/ha against DIGSA in %,[4],100%
same,Post-emergence effect at 20 g/ha against DIGSA in %,[4],100%
same,Post-emergence effect at 5 g/ha against ECHCG in %,[5],100%
same,pest or weed control at 20 g/ha,"[5]; Echinochloa crus-galli, 504 h, 20 g/ha, read-out: Post-emergence effect at 20 g/ha against ECHCG in %",100%
same,Post-emergence effect at 20 g/ha against LOLRI in %,Lolium rigidum (LOLRI),100%
same,pest or weed control at 5 g/ha,"[6]; Ipomoea purpurea, 504 h, 5 g/ha, read-out: Post-emergence effect at 5 g/ha against PHBPU in %",100%
same,pest or weed control at 20 g/ha,"[6]; Ipomoea purpurea, 504 h, 20 g/ha, read-out: Post-emergence effect at 20 g/ha against PHBPU in %",100%
same,pest or weed control at 5 g/ha,"[7]; Fallopia convolvulus, 504 h, 5 g/ha, read-out: Post-emergence effect at 5 g/ha against POLCO in %",100%
same,pest or weed control at 20 g/ha,"[7]; Fallopia convolvulus, 504 h, 20 g/ha, read-out: Post-emergence effect at 20 g/ha against POLCO in %",100%
same,Post-emergence effect at 1.25 g/ha against SETVI in %,Setaria viridis (SETVI),100%
same,pest or weed control at 5 g/ha,"Setaria viridis (SETVI); Setaria viridis, 504 h, 5 g/ha, read-out: Post-emergence effect at 5 g/ha against SETVI in %",100%
same,pest or weed control at 20 g/ha,"Setaria viridis (SETVI); Setaria viridis, 504 h, 20 g/ha, read-out: Post-emergence effect at 20 g/ha against SETVI in %",100%
same,pest or weed control at 20 g/ha,"[8]; Tripleurospermum inodorum, 504 h, 20 g/ha, read-out: Post-emergence effect at 20 g/ha against MATIN in %",100%
same,Post-emergence effect at 1.25 g/ha against VERPE in %,Veronica persica (VERPE),100%
same,pest or weed control at 5 g/ha,"Veronica persica (VERPE); Veronica persica, 504 h, 5 g/ha, read-out: Post-emergence effect at 5 g/ha against VERPE in %",100%
same,pest or weed control at 20 g/ha,"Veronica persica (VERPE); Veronica persica, 504 h, 20 g/ha, read-out: Post-emergence effect at 20 g/ha against VERPE in %",100%
same,Post-emergence effect at 1.25 g/ha against VIOTR in %,Viola tricolor (VIOTR),100%
same,Post-emergence effect at 5 g/ha against VIOTR in %,Viola tricolor (VIOTR),100%
same,pest or weed control at 20 g/ha,"Viola tricolor (VIOTR); Viola tricolor, 504 h, 20 g/ha, read-out: Post-emergence effect at 20 g/ha against VIOTR in %",100%
same,Post-emergence effect at 1.25 g/ha against TRZAS in %,"[9]; Triticum aestivum, in vivo",10%
